Laboratory results published in patent US12714678B2, “Peptides and methods of treating sepsis, atherosclerosis, thrombosis, stroke, heart attack and inflammation” (THE BOARD OF TRUSTEES OF THE UNIVERSITY OF ILLINOIS, priority 2019, dated 2026).
Where a SMILES comes first, the peptide text is derived from it. Bridges are numbered along the chain shown (N, C = ends). Where no end group is shown, it is not given here. [ ]: non-standard residue; d: D form. The star is where a group is joined. hArg = N=C(N)NCCCC[C@H](N)C(=O)O; Myristoyl = CCCCCCCCCCCCCC(=O)*; Mpa = O=C(O)CCS

What was measured:
C57BL/6 mice [1] = experiment: Tail bleeding time; conditions: cangrelor 30 μg/kg; for tail bleeding, drugs injected after initiation of thrombosis: M3mP6 10 μmol/kg; for tail bleeding time vs normal control: M3mP6 HLPN 10 μmol/kg, aspirin 4.3 mg/kg, clopidogrel 4 mg/kg, ticagrelor 3 mg/kg, MB2mP6
Procedure: M3mP6 was administered via retro-orbital injection 15 minutes prior to procedure.
Tail bleeding time was performed as previously described (21, 39). Eight- to 10-week-old C57BL/6 mice were anesthetized with isoflurane. After cutting 0.5-cm-long segment of the distal tip of the tail, their tails were immersed in 0.15 M NaCl immediately at 37° C. Tail bleeding time was defined as the time between cutting tail and stable cessation of bleeding (no rebleeding within 60s). […] If bleeding persisted at 15 minute time point, bleeding was stopped by application of pressure. Data were analyzed using Mann-Whitney test to compare medians between groups.
Tail bleeding time was performed as previously described (16, 29). Eight- to 10-week-old C57BL/6 mice weighing 20-25 g were anesthetized with isoflurane. After cutting a 0.5-cm-long segment off the distal tip of the tail, their tails were immersed in 0.15 M NaCl immediately at 37° C. Tail bleeding time was defined as the time between cutting the tail and stable cessation of bleeding (no re-bleeding within 60s). […] If bleeding persisted at 15 minutes, bleeding was stopped by application of pressure. Data were analyzed using the Mann-Whitney test to compare medians between groups.

Sprague-Dawley (SD) rats = experiment: Toxicity of bolus and continuous intravenous infusion in rats; assay type: in vivo; conditions: IV bolus 100 mg/kg followed by IV infusion 25 mg/kg/hr for 24 hr
Procedure: (§1) Toxicological responses to bolus and continuous intravenous infusion of M3mP6 HLPN were performed using jugular vein catheterized (JVC) Sprague-Dawley (SD) rats (6-8 weeks old and […]), which were quarantined for at least 3 day after arrival. Four SD rats (n=2 per sex) was given an IV bolus dose of M3mP6 (100 mg/kg, dose volume 10 mL/kg) followed by IV infusion dose of M3mP6 for 24 hr (25 mg/kg/hr for a total dose of 600 mg/kg/day). […] A pilot 7-day continuous infusion study in rats was performed similarly with lower drug concentrations. The parameters observed include mortality, clinical signs, body weights, hematology, clinical chemistry and organ weights. For pharmacokinetic studies, plasma samples for drug analysis were obtained from blood samples collected in satellite 6 males and 6 females (3 rat/sex per time-point) in the dose Groups 3 and 4 (Phase 2) at the following time-point on Day 1 after the bolus dose and infusion were started: 5, 10 and 30 minutes, and 1, 2, 6 and 24 hours. Additional blood samples were collected prior to the end of 5-day infusion, immediately after stopping the infusion, and at 30 minutes, and 1, 4, 6, 24 and 48 hours after the end of the infusion.

Pharmacokinetics in mice = assay type: in vivo, mouse; conditions: intravenous injection of 5 mg/kg (5 μmol/kg)
Procedure: For pharmacokinetic studies, CD-1 mice were intravenously injected with 5 mg/kg (5 μmol/kg) M3mP6 (potential therapeutic dose). At the following time points: 0 (pre-dose) min, 5 min, 10 min, 30 min, 1, 2, 4, 6, and 24 hours, 3 drug-treated mice were sacrificed, and their blood drawn via vena cava into K2EDTA tubes. Whole blood and plasma were analyzed for M3mP6 concentrations using Agilent 1290 Infinity LC and 6430 triple quadrupole mass spectrometer and MassHunter software.

[2] = Acute maximal tolerated dose (MTD) in mice; conditions: mouse, in vivo, 60 mg/kg; CD-1 mice, IV tail vein, single injection, observed 8 days; read-out: maximal tolerated dose (MTD) = maximal feasible dose
Procedure: Four more animals were then injected with the same dose. The animals were observed 2 times per day for 8 days for clinical signs of toxicity.

[3] = Pharmacokinetics in rats (5-day infusion); parameters: species or system rat; conditions: Sprague-Dawley, in vivo
Procedure: as §1

human platelets [4] = experiment: Human platelet granule (ATP) secretion (lumiaggregometer); assay type: cell-based; conditions: for integrin-dependent second wave of ATP/granule secretion induced by U46619 / integrin-independent first wave of ATP/granule secretion induced by U46619: human platelets (Integrilin: mouse and human platelets); for ATP secretion induced by thrombin: washed human platelets pretreated with peptide
Procedure: (§2) For human subjects, Institutional Review Board approval was obtained from the University of Illinois at Chicago, and informed consent from volunteers was obtained in accordance with the Declaration of Helsinki. Platelets were prepared as previously described (33). Platelet aggregation and adenosine triphosphate (ATP) secretion were measured simultaneously in a lumiaggregometer (Chronolog) at 37° C. with stirring (1000 rpm), as previously described (34).
(§3) To prepare platelet-rich plasma (PRP), whole blood was anticoagulated with 3.8% trisodium citrate. To prepare human platelets, one-seventh volume of ACD was used as anticoagulant. Platelets were washed twice and resuspended in modified Tyrode's buffer as previously described (27). Platelet aggregation and adenosine triphosphate (ATP) secretion were measured simultaneously in a lumiaggregometer (Chronolog) at 37° C. with stirring (1000 rpm) as previously described (28).

C57BL/6 mice [5] = experiment: FeCl3-induced mouse carotid artery thrombosis model; assay type: in vivo; conditions: for formation of stable occlusive thrombus / occlusion time vs normal control: 7.5% FeCl3, M3mP6 HLPN 5 or 10 μmol/kg retro-orbital 15 min before, aspirin 4.3 mg/kg oral 2 h, clopidogrel 4 mg/kg oral 2 h, MB2mP6 15 min before; for anti-thrombotic effect compared with M3mP6 HLPN (10 μmol/kg), pre-injury dosing: clopidogrel 4 mg/kg, ticagrelor 3 mg/kg, aspirin 4.3 mg/kg oral, cangrelor 30 μg/kg retro-orbital, MB2mP6
Procedure: The right carotid artery was isolated (34, 37). A MA-0.5SB nanoprobe (Transonic Systems, Ithaca, NY) was hooked to the carotid artery to monitor blood flow with a TS420 flowmeter (Transonic Systems) as previously described (38). After stabilization, carotid arterial thrombosis was induced with 7.5% ferric chloride (FeCl3) (Sigma Aldrich, St. Louis, MO), a filter paper disc (2 mm diameter) soaked with 1.2 μL of 7.5% FeCl3 was placed on top of the artery for 3 minutes, and then removed. M3mP6 HLPN, HLPN of scrambled control peptide, HLPN of a second control peptide carrying AAA mutation or physiological saline solution were injected 15 minutes before procedure retro-orbitally. […] To study the effect of post-injury drug injection on thrombosis development, the filter paper disc soaked with 1.2 μl 3.75% FeCl3 were placed on artery for 2 minutes, and drugs were injected retro-orbitally 3 minutes after removing the filter paper. Blood flow was monitored continuously until 5 minutes after occlusion or for 30 minutes if no occlusion occurred. Time to occlusion was defined as the time between the removal of the filter paper and stable occlusion (no blood flow for 2 minutes).
Eight- to 10-week-old C57BL/6 mice (20-25 g body weight) were anesthetized by isoflurane inhalation. The right carotid artery was isolated. A MA-0.5SB nanoprobe (Transonic Systems, Ithaca, NY) was hooked to the carotid artery to monitor blood flow with a TS420 flowmeter (Transonic Systems) as previously described (29). After stabilization, a filter paper disc (2 mm diameter) soaked with 1.2 μL of 7.5% FeCl3 (Sigma Aldrich, St. Louis, MO) was placed on top of the carotid artery for 3 minutes to induce thrombosis and then removed. MB2mP6 or scrambled control peptide were injected 15 minutes before the procedure retro-orbitally. Blood flow was monitored continuously until 5 minutes after occlusion or for 15 minutes if no occlusion occurred. Time to occlusion was defined as the time between the removal of the filter paper and stable occlusion (no blood flow for 5 minutes).

human platelets [6] = experiment: Human platelet aggregation (lumiaggregometer); assay type: cell-based; conditions: washed human platelets pretreated with peptide
Procedure: as §2, §3

[7] = Peptide loading, peptide concentration and dissolution of the nanoparticle/micelle formulation; assay type: physicochemical; conditions: HLPN, or lipid micellar suspension for mP6
Text: The peptide myr-FEEERL(SEQ ID NO: 25) was modified from the original […] cytoplasmic domain sequence to make it more suitable to form peptide-based nanoparticle, and was formulated to form lipid-stabilized high-loading peptide nanoparticles together with PEG2000-DSPE (Avanti Polar Lipids Inc. Alabaster, AL), L-α-phosphatidylcholine (egg PC, Type XI-E, Sigma-Aldrich, St. Louis, MO) with a peptide to PEG-DSPE to PC molar ratio of 36.8:51.7:11.5 or 50:40:10 (further improved formulation with identical in vivo effect) using thin-film rehydration (21, 31). The size distribution of nanoparticles were determined using dynamic light scattering (DLS) (Malvern, Zetasizer Nano ZS90, Worcestershire, U.K.) as previously described (32). This method uses light scattering to monitor the Brownian motion of the particles. Particle size is presented as volume weighted diameter distribution.

[8] = reference (21); cited from earlier work
C57BL/6 mice [9] = experiment: Arterial perforation bleeding analysis (carotid artery perforation model of surgical bleeding); assay type: in vivo, mouse; conditions: M3mP6 HLPN 10 μmol/kg; cangrelor loading dose 30 μg/kg
Procedure: The right carotid artery was isolated as previously described (34, 37) and punctured with a 27½G needle in the middle of carotid artery. The perforating wound was immediately covered with a 4×4 mm hemostatic pad (CERTI-GAUZE™, Kansas City, MO), which serve to absorb extravascular blood and also help stop bleeding similarly to that during vascular procedures. The pad was removed after 15 minutes regardless whether bleeding continued or not. The volume of blood absorbed on the pad during the 15-minute period was quantified by estimating the amount of hemoglobin. To do so, adsorbed blood on the pad was dissolved into 30 mL double distilled water. To 1 mL of dissolved blood, 1 mL of the 2× Drabkin's Solution was added. After fully mixing and incubating for 20 minutes at room temperature, the absorbance of the samples was analyzed at 540 nm wave length with a spectrophotometer. Known volumes of blood were similarly analyzed to establish a standard curve for the calculation of blood volume on the pad. Data were analyzed by Mann-Whitney test for statistical significance.

C57BL/6 mice [10] = experiment: Laser-induced mouse cremaster arteriolar thrombosis and intravital microscopy; assay type: in vivo; conditions: M3mP6 HLPN 10 μmol/kg, cangrelor 30 μg/kg
Procedure: Laser-induced thrombosis and intravital microscopy are performed as previously described using male C57BL/6 mice (6-8 weeks old) anesthetized by intraperitoneal injection of ketamine and xylazine (36). Platelet thrombi were indicated by infusion of DyLight 649-labeled anti-mouse […], Germany). Fibrin deposition was tracked by Alexa Fluor (AF) 488-labeled monoclonal anti-fibrin antibody (clone 59D8) as previously described (25). Suspensions of M3mP6 HLPN (10 μmol/kg) or a control peptide (Myr-ERAFEE (SEQ ID NO: 47)) HLPN in 0.15 M NaCl or cangrelor were injected 15 min or immediately prior to induction of injury. Fluorescence and bright-field images were recorded by an Olympus BX61W microscope with a 603/1.0 NA water immersion objective and a high-speed camera (5 frame/second) through an intensifier at 27-30 injury sites in 7 mice per group. The movies shown are compressed to 100 frame/second.

## CCCCCCCCCCCCCC(=O)N[C@@H](Cc1ccccc1)C(=O)N[C@@H](CCC(=O)O)C(=O)N[C@@H](CCC(=O)O)C(=O)N[C@@H](CCC(=O)O)C(=O)N[C@@H](CCCNC(=N)N)C(=O)N[C@@H](CC(C)C)C(=O)O [M3mP6, Myr-FEEERL] (Myristoyl-FEEERL-OH; C-terminus assumed)
C57BL/6 mice [1]
  tail bleeding, drugs injected after initiation of thrombosis: but not M3mP6 caused significant bleeding
Sprague-Dawley (SD) rats
  toxicity during 3-4 days post dose (single dose MTD): no toxicity was observed
Pharmacokinetics in mice; CD-1, mouse, in vivo, read-out: t1/2−λz (converted)
  half-life: 148 min
Pharmacokinetics in mice
  maximum level in whole blood: 33.36 ng/mL
[2]
  MTD at 8 days: 60 mg/kg
[3]; female, rat, iv
  half-life: 222 min
[3]; male, rat 5-day infusion study, read-out: t1/2−λz (half-life after cessation of infusion), male (converted)
  half-life: 186 min

## N=C(N)NCCCC[C@@H]1NC(=O)CCSSC[C@@H](C(N)=O)NC(=O)[C@@H]2CCCN2C(=O)[C@H](Cc2c[nH]c3ccccc23)NC(=O)[C@H](CC(=O)O)NC(=O)CNC1=O [Integrilin, reference compound] ([Mpa][hArg]GDWPC-NH2; disulfide 1-7)
Human platelets [4]
  integrin-dependent second wave of ATP/granule secretion induced by U46619: diminished
  integrin-independent first wave of ATP/granule secretion induced by U46619: significantly enhanced
Human platelets [4]; wild type mouse or human platelets
  platelet granule secretion, low dose thrombin, integrin antagonist-treated platelets: enhanced

## COC(=O)[C@H](c1ccccc1Cl)N1CCc2sccc2C1 [clopidogrel]
C57BL/6 mice [5]
  formation of stable occlusive thrombus / occlusion time vs normal control: moderate but significant delay
  anti-thrombotic effect compared with M3mP6 HLPN (10 μmol/kg), pre-injury dosing: significantly less effective

## myr-EEERA (Myristoyl-EEERA) [mP5]
Human platelets [6]
  thrombin-induced platelet aggregation: partially inhibited
Human platelets [4]
  integrin-dependent second wave of ATP/granule secretion induced by U46619: reduced
  integrin-independent first wave of ATP/granule secretion induced by U46619: significantly enhanced
  ATP secretion induced by thrombin: enhanced

## CCCSc1nc(N[C@@H]2C[C@H]2c2ccc(F)c(F)c2)c2nnn([C@@H]3C[C@H](OCCO)[C@@H](O)[C@H]3O)c2n1 [ticagrelor]
C57BL/6 mice [1]
  tail bleeding time vs normal control: dramatically prolonged

## CC(=O)Oc1ccccc1C(=O)O [aspirin]
C57BL/6 mice [5]
  formation of stable occlusive thrombus / occlusion time vs normal control: not significantly different
C57BL/6 mice [5]; aspirin 36 mg/kg i.p. 1 hour prior, M3mP6 HLPN 5 μmol/kg, combination
  occlusive thrombus formation, high dose aspirin experiment: no significant effect

## myr-FEEERA (Myristoyl-FEEERA) [mP6]
Human platelets [6]
  thrombin-induced platelet aggregation: potently inhibited
Human platelets [4]
  integrin-dependent second wave of ATP/granule secretion induced by U46619: diminished
  integrin-independent first wave of ATP/granule secretion induced by U46619: diminished
  ATP secretion induced by thrombin: significantly inhibited
[7]
  peptide concentration in injectable/micellar suspension: 1 mM
  peptide loading, of total molar content (mol/mol): < 4%
[8]
  maximal concentration of peptide in lipid micellar formulation: < 1 mM
  maximal peptide content of lipid micellar formulation (mol/mol): ≤ 4%

## CSCCNc1nc(SCCC(F)(F)F)nc2c1ncn2[C@@H]1O[C@H](COP(=O)(O)OP(=O)(O)C(Cl)(Cl)P(=O)(O)O)[C@@H](O)[C@H]1O [cangrelor]
C57BL/6 mice [1]
  tail bleeding, drugs injected after initiation of thrombosis: caused significant bleeding
  tail bleeding time vs normal control: dramatically increased
C57BL/6 mice [9]
  bleeding from perforated artery vs control mice: caused excessive bleeding
C57BL/6 mice [10]
  intravascular fibrin clot formation at the site of vascular injury: moderate effect
C57BL/6 mice [10]; preinjected
  platelet thrombus formation: completely inhibiting
C57BL/6 mice [5]; 3.75% FeCl3, cangrelor 30 μg/kg
  anti-thrombotic effect compared with M3mP6 (10 μmol/kg), drugs injected after initiation of thrombosis: no statistical difference
C57BL/6 mice [5]
  anti-thrombotic effect compared with M3mP6 HLPN (10 μmol/kg), pre-injury dosing: moderately but significantly better
